Test results published in patent US10138232B2, “Naphthyridinedione derivatives” (NOVARTIS AG, priority 2014, dated 2018).

System: CFTR-Y122X (GFP-CFTR-Y122X-Renilla construct) in Hek293 cell lines
Assay: CFTR-Y122X assay (dual reporter readthrough, Renilla luminescence)
Format: cell-based
Details: Homo sapiens; for AC50: nonsense mutation suppression in the CFTR-Y122X assay; for AC50 / Emax: compounds incubated 24 h, tested up to 100 μM; for Emax: nonsense mutation suppression, 100% activity = 14 mM paromomycin, read-out: Amax
From the text: In particular, compounds of formula (I), (I′), (Ia), (Ia′) or (Ib) I act as nonsense mutation suppressors on frequent PTCs, e.g. on Y122X in the mRNA of the cystic fibrosis conductance regulator protein (CFTR). This can be determined in vitro, for example, using cell lines expressing GFP-CFTR-Y122X-Renilla constructs as described herein.
Activity of compounds of the present invention was examined in recombinant, dual reporter isogenic Hek293 cell lines (“CFTR-Y122X assay”). The engineered reporter constructs contained the 18 bp sequence strech corresponding to a common Y122X PTC mutation in CFTR class I mutant patients (see Sermet-Gaudelus, BMC Medicine, 2007, 5(5)). Instead of a tyrosine (Y) in position 122 of the CFTR protein a TGA stop codon interrupts the open reading frame (Y122X) of the corresponding mRNA. This TGA stop codon triplet (followed by the pyrimidine base cytosine) is permissive to aminoglycoside mediated translational readthrough which served as positive control for high throughput screening. A corresponding TAA stop codon variant and a wildtype non mutated construct was used for confirmation and counter screening. The CFTR sequence was sandwiched between an eGFP reporter, and a triple myc tag sequence fused to a full length Renilla reporter. All sequences, including an intron containing one positioned pre-eGFP (b-globin intron) were cloned in frame. The corresponding expression constructs were stably expressed in the isogenic HEK-R4 cell host (Invitrogen Incorp.) and selected by blasticidin resistance. The isogenic integration of the construct minimizes gene dose effects and improves assay reproducibility. Stably integrated single cell derived clones were selected and characterized for aminoglycoside mediated readthrough. […] Readthrough of Y122X accumulates an intracellular localized fusion protein approximately 65.5 kDa in size as controlled by western blot analysis and immunofluorescence using an anti-renilla antibody. The eGFP reporter pre-PTC mutation serves as visual control for genetic stability of the screening clones and minimizes protein degradation of small fusion protein amounts. In the assay, compound concentration was 10 μM. In miniaturized 1536 well format 2000 cells were dispensed in 4 μl/well and incubated for 24 h at 37° C., 5% CO2. 40 nl compounds were placed on the cells with control wells containing 1 ul Paramomycin and 14.4 mM final concentration. Compounds were incubated for 24 h. Renilla Glo substrate (2.5 ul) was added and plates were centrifuged and processed for luminescence measurement using various readers. Activity calculation was done using the equation: A1(%)=100*(S−NC)/(AC−NC) where AC, NC and S correspond to active controls (injection of Stimulation buffer=100% stimulation), neutral controls (buffer injection which Iloprost EC10) and screening samples (S). NC corresponds to 0% activity whereas AC is 100% activity (14 mM paromomycin). False positive artefacts were removed in confirmation and validation screening using the same assay format followed by counterscreening using the respective wildtype construct (w/o PTC mutation) cell model. Compounds were tested up to 100 μM compound concentration.

For `Cn1c2ccccc2c(=O)c2c(=O)n(N3CCCC3)c(C3CCC3)cc21` [Example 2.8, 3-cyclobutyl-5-methyl-2-(pyrrolidin-1-yl)benzo[b][1,6]naphthyridine-1,10(2H,5H)-dione], the AC50 was 6.1 µM and the Emax was 188%.
`CC(C)c1c(Cl)c2[nH]c3ccccc3c(=O)c2c(=O)n1-c1ccccc1` [Example 3.1, 4-chloro-3-isopropyl-2-phenylbenzo[b][1,6]naphthyridine-1,10(2H,5H)-dione] showed an AC50 of 3.2 µM and an Emax of 211%.
For `CC(C)c1cc2c(c(=O)c3cc(O)ccc3n2C)c(=O)n1-c1ccccc1` [Example 1.51, 8-hydroxy-3-isopropyl-5-methyl-2-phenylbenzo[b][1,6]naphthyridine-1,10(2H,5H)-dione], the AC50 was 16.5 µM and the Emax was 144%.
Compound `Cc1cc2c(s1)c(=O)c1c(=O)n(-c3ccccc3)c(C(C)C)cc1n2C` [Example 1.19, 6-isopropyl-2,4-dimethyl-7-phenylthieno[3,2-b][1,6]naphthyridine-8,9(4H,7H)-dione] has an AC50 of 12.8 µM and an Emax of 253%.
Work on `CC(C)c1cc2c(c(=O)c3ccsc3n2C)c(=O)n1C1CCCC1` [Example 2.16, 6-cyclopentyl-7-isopropyl-9-methylthieno[2,3-b][1,6]naphthyridine-4,5(6H,9H)-dione] yielded an AC50 of 1.2 µM and an Emax of 279%.
For `O=c1c2c([nH]c3cc(C4CCC4)n(-c4ccccc4)c(=O)c13)CCCC2` [Example 1.30, 3-cyclobutyl-2-phenyl-6,7,8,9-tetrahydrobenzo[b][1,6]naphthyridine-1,10(2H,5H)-dione], the AC50 was 0.7 µM and the Emax was 324%.
In the case of `CC(C)c1cc2c(c(=O)c3cc(Cl)ccc3n2C)c(=O)n1-c1ccccc1` [Example 1.8, 8-chloro-3-isopropyl-5-methyl-2-phenylbenzo[b][1,6]naphthyridine-1,10(2H,5H)-dione], the AC50 is reported as 14.8 µM and the Emax is reported as 307%.
In the case of `CC(C)c1cc2c(c(=O)c3sccc3n2C)c(=O)n1-c1ccccc1` [Example 1.17, 6-isopropyl-4-methyl-7-phenylthieno[3,2-b][1,6]naphthyridine-8,9(4H,7H)-dione], the AC50 is reported as 9.2 µM and the Emax is reported as 430%.
`Cc1cc2c(=O)c3c(=O)n(-c4ccccc4)c(C(C)C)cc3[nH]c2s1` [Example 1.14, 7-isopropyl-2-methyl-6-phenylthieno[2,3-b][1,6]naphthyridine-4,5(6H,9H)-dione] showed an Emax of 35%.
`CC(C)c1cc2c(c(=O)c3cccc(O)c3n2C)c(=O)n1-c1ccccc1` [Example 1.52, 6-hydroxy-3-isopropyl-5-methyl-2-phenylbenzo[b][1,6]naphthyridine-1,10(2H,5H)-dione] was tested, and the AC50 was 21 µM and the Emax was 49%.
Compound `Cc1ccc2c(c1)c(=O)c1c(=O)n(-c3ccccc3)c(C3CCC3)cc1n2C` [Example 1.38, 3-cyclobutyl-5,8-dimethyl-2-phenylbenzo[b][1,6]naphthyridine-1,10(2H,5H)-dione] has an AC50 of 2.3 µM and an Emax of 215%.
Compound `O=c1c2ccccc2[nH]c2cc(C3CCC3)n(-c3ccccc3)c(=O)c12` [Example 1.1, 3-Cyclobutyl-2-phenylbenzo[b][1,6]naphthyridine-1,10(2H,5H)-dione] has an AC50 of 0.6 µM and an Emax of 219%.
In the case of `CC(C)c1cc2[nH]c3ccccc3c(=O)c2c(=O)n1N1CCCC1` [Example 2.11, 3-isopropyl-2-(pyrrolidin-1-yl)benzo[b][1,6]naphthyridine-1,10(2H,5H)-dione], the AC50 is reported as 0.9 µM.
In the case of `Cc1cc2c(s1)c(=O)c1c(=O)n(-c3ccccc3)c(C3CCC3)cc1n2C` [Example 1.36, 6-cyclobutyl-2,4-dimethyl-7-phenylthieno[3,2-b][1,6]naphthyridine-8,9(4H,7H)-dione], the AC50 is reported as 4.1 µM and the Emax is reported as 177%.
With `O=c1c2ccccc2[nH]c2cc(C3CCC3)n(C3CCCC3)c(=O)c12` [Example 2.1, 3-cyclobutyl-2-cyclopentylbenzo[b][1,6]naphthyridine-1,10(2H,5H)-dione] the AC50 was 0.5 µM and the Emax was 229%.
Work on `CC(C)c1cc2[nH]c3sccc3c(=O)c2c(=O)n1C1CCCC1` [Example 2.15, 6-cyclopentyl-7-isopropylthieno[2,3-b][1,6]naphthyridine-4,5(6H,9H)-dione] yielded an Emax of 124%.
`Cc1ccc2[nH]c3cc(C4CCC4)n(-c4ccccc4)c(=O)c3c(=O)c2c1` [Example 1.41, 3-cyclobutyl-8-methyl-2-phenylbenzo[b][1,6]naphthyridine-1,10(2H,5H)-dione] showed an AC50 of 0.5 µM and an Emax of 223%.
For `NC[C@@H]1O[C@H](O[C@H]2[C@@H](O)[C@H](O[C@@H]3[C@@H](O)[C@H](N)C[C@H](N)[C@H]3O[C@H]3O[C@H](CO)[C@@H](O)[C@H](O)[C@H]3N)O[C@@H]2CO)[C@H](N)[C@@H](O)[C@@H]1O` [paromomycin, reference compound], the EC50 (clone pursued for HTS assay development, read-out: EC50 (response of selected clone, aminoglycoside mediated readthrough)) was 1500 µM.
Compound `O=c1c2cc(F)ccc2[nH]c2cc(C3CCC3)n(-c3ccccc3)c(=O)c12` [Example 1.44, 3-cyclobutyl-8-fluoro-2-phenylbenzo[b][1,6]naphthyridine-1,10(2H,5H)-dione] has an AC50 of 0.4 µM and an Emax of 178%.
`COc1cccc2c(=O)c3c(=O)n(-c4ccccc4)c(C(C)C)cc3n(C)c12` [Example 1.43, 3-isopropyl-6-methoxy-5-methyl-2-phenylbenzo[b][1,6]naphthyridine-1,10(2H,5H)-dione] showed an AC50 of 22 µM and an Emax of 186%.
For `CC(C)c1cc2[nH]c3sccc3c(=O)c2c(=O)n1-c1ccccc1` [Example 1.12, 7-isopropyl-6-phenylthieno[2,3-b][1,6]naphthyridine-4,5(6H,9H)-dione], the AC50 was 19 µM and the Emax was 248%.
`Cc1ccc2[nH]c3cc(C(C)C)n(-c4ccccc4)c(=O)c3c(=O)c2c1` [Example 1.9, 3-isopropyl-8-methyl-2-phenylbenzo[b][1,6]naphthyridine-1,10(2H,5H)-dione] showed an AC50 of 1.2 µM and an Emax of 249%.
With `O=c1c2sccc2[nH]c2cc(C3CCC3)n(-c3ccccc3)c(=O)c12` [Example 1.35, 6-cyclobutyl-7-phenylthieno[3,2-b][1,6]naphthyridine-8,9(4H,7H)-dione] the AC50 was 0.4 µM and the Emax was 126%.
With `COc1cccc2c(=O)c3c(=O)n(-c4ccccc4)c(C4CCC4)cc3n(C)c12` [Example 1.46, 3-cyclobutyl-6-methoxy-5-methyl-2-phenylbenzo[b][1,6]naphthyridine-1,10(2H,5H)-dione] the AC50 was 3.4 µM and the Emax was 247%.
Work on `CC(C)c1c(Br)c2c(c(=O)c3ccccc3n2C)c(=O)n1-c1ccccc1` [Example 3.3, 4-bromo-3-isopropyl-5-methyl-2-phenylbenzo[b][1,6]naphthyridine-1,10(2H,5H)-dione] yielded an AC50 of 18.8 µM and an Emax of 122%.
`Cc1cc2[nH]c3cc(C(C)C)n(-c4ccccc4)c(=O)c3c(=O)c2s1` [Example 1.18, 6-isopropyl-2-methyl-7-phenylthieno[3,2-b][1,6]naphthyridine-8,9(4H,7H)-dione] showed an AC50 of 3.9 µM and an Emax of 240%.
With `CC(C)c1c(Cl)c2c(c(=O)c3ccccc3n2C)c(=O)n1-c1ccccc1` [Example 3.2, 4-chloro-3-isopropyl-5-methyl-2-phenylbenzo[b][1,6]naphthyridine-1,10(2H,5H)-dione] the AC50 was 17.2 µM and the Emax was 220%.
In the case of `Cn1c2ccc(F)cc2c(=O)c2c(=O)n(-c3ccccc3)c(C3CCC3)cc21` [Example 1.39, 3-cyclobutyl-8-fluoro-5-methyl-2-phenylbenzo[b][1,6]naphthyridine-1,10(2H,5H)-dione], the AC50 is reported as 1.2 µM and the Emax is reported as 239%.
